According to patent publication US10508118B2, “Pyrimidopyrrole compounds, method for preparing the same, pharmaceutical compositions comprising the same and uses thereof” (Xiamen University, priority 2015, dated 2019):
Where two headings read alike, the source gives them in different places.

Columns and labels:
Type in all cases: cell-based
[1] = molecular target: T1, EML4-ALK-BaF3 (Homo sapiens, UniProt Q9UM73); assay: Growth inhibition of EML4-ALK transformed BaF3 cells (MTS); settings: for IC50: EML4-ALK-BaF3 cells, 48 hours, MTS
T1 construct: expressed in transfected cells; host or cells: Ba/F3 cells; the other entry of the earlier key: EML4 (Q9HC35, Echinoderm microtubule-associated protein-like 4)
Outline: (§1)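 Ba/F3 cells (2×10^4/well) in DMEM or RPMI1640 with 10% FBS exposed to 8 compound concentrations (top 10 μM, 1/3 serial dilution, 0.1% DMSO) for 48 h at 37 °C, 5% CO2. Viability by MTS/PES, 1-4 h, OD 490 nm; triplicates. IC50 fitted from inhibition rate.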

[2] = molecular target: T2, EML4-ALK (L1196M)-BaF3 (Homo sapiens, UniProt Q9UM73, L1196M); assay: Growth inhibition of EML4-ALK (L1196M) transformed BaF3 cells (MTS); settings: 48 hours
T2 construct: expressed in transfected cells; host or cells: Ba/F3 cells; the other entry of the earlier key: EML4 (Q9HC35, Echinoderm microtubule-associated protein-like 4)
Outline: as §1

[3] = molecular target: T3, NPM-ALK-BaF3 (Homo sapiens, UniProt Q9UM73); assay: Growth inhibition of NPM-ALK transformed BaF3 cells (MTS); settings: 48 hours
T3 construct: expressed in transfected cells; host or cells: Ba/F3 cells; the other entry of the earlier key: NPM1 (P06748, Nucleophosmin)
Outline: (§2)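 Cells (2×10^4/well) exposed 48 h at 37 °C to 8 compound concentrations, 3-fold down from 10 μM, in 0.1% DMSO. Growth read by MTS/PES at 490 nm after 1–4 h; inhibition normalised to DMSO and cell-free blank, IC50 from triplicates.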

[4] = system: wild type BaF3; assay: Growth inhibition of wild type BaF3 cells (broad-spectrum toxicity); settings: Mus musculus, BaF3, 48 h, MTS
Outline: as §2

[5] = system: lung cancer cells H3122; assay: Growth inhibition of tumor cells H3122; settings: Homo sapiens, NCI-H3122
[6] = system: lung cancer cells A549; assay: Growth inhibition of tumor cells A549; settings: Homo sapiens
[7] = system: melanoma A375; assay: Growth inhibition of tumor cells A375; settings: Homo sapiens, A-375
[8] = system: liver cancer HepG2; assay: Growth inhibition of tumor cells HepG2; settings: Homo sapiens
[9] = system: breast cancer MCF7; assay: Growth inhibition of tumor cells MCF7; settings: Homo sapiens
[10] = system: DFC1076 (crizotinib resistant tumor cell lines); assay: Growth inhibition of tumor cells DFC1076; settings: ALK kinase-positive lung cancer cell line
[11] = Table 11, read-out: EML4-ALK (L1196M) (IC50 nM)

`COc1cc(N2CCC(N3CCN(C)CC3)CC2)ccc1Nc1nc(Nc2ccccc2S(=O)(=O)C(C)C)c2[nH]ccc2n1` [ID-3] was tested, and the IC50 ([1]; Table 11) was 14.9 nM, the targeting selectivity ([1]; ratio of IC50 between wild-type BaF3 and ALK transformed BaF3 cells) was “good targeting selectivity” and the IC50 [2, 11] was 168 nM. The IC50 ([3]; Table 11) was 303 nM, the IC50 ([4]; Table 11) was 1010 nM and the IC50 [5] was 61.1 nM. It also gave an IC50 [6] of 2720 nM, an IC50 [7] of 3760 nM and an IC50 [8] of 3440 nM. For the same molecule, the IC50 [9] was 2840 nM and the growth inhibition [10] was “good growth inhibition”.
Molecule `C[C@@H](Oc1cc(-c2cnn(C3CCNCC3)c2)cnc1N)c1c(Cl)ccc(F)c1Cl` [Crizotinib, crizotinib, reference compound] has an IC50 ([4]; Table 11) of 1080 nM, an IC50 ([4]; Table 12) of 1080 nM and an IC50 [5] of 185 nM. It also gave an IC50 [6] of 2400 nM.
For `CC(C)Sc1ccccc1CNc1nc(Nc2ccc(S(N)(=O)=O)cc2)nc2cc[nH]c12` [IM-3], the IC50 ([1]; Table 11) was 7530 nM, the IC50 [2, 11] was over 10000 nM and the IC50 ([3]; Table 11) was over 10000 nM. The IC50 ([4]; Table 11) was over 10000 nM.
Molecule `COC(=O)c1cccc(Nc2nc(Nc3ccc(N4CCN(C)CC4)cc3OC)nc3ccn(C)c23)c1` [IIH-1] has an IC50 ([1]; Table 12) of 1620 nM, an IC50 ([2]; Table 12, read-out: L1196M (IC50 nM)) of 1840 nM and an IC50 ([3]; Table 12) of 1750 nM. For the same molecule, the IC50 ([4]; Table 12) was 4940 nM.
`CSc1ccccc1CNc1nc(Nc2ccc(N3CCC(O)CC3)cc2)nc2cc[nH]c12` [IL-3] gave an IC50 ([1]; Table 11) of 3500 nM, an IC50 [2, 11] of 5020 nM and an IC50 ([3]; Table 11) of 5180 nM. It also gave an IC50 ([4]; Table 11) of 5180 nM.
In the case of `COC(=O)c1ccccc1Nc1nc(Nc2ccc(N3CCOCC3)cc2OC)nc2cc[nH]c12` [IG-16], the IC50 ([1]; Table 11) is reported as 1370 nM, the IC50 [2, 11] is reported as 1390 nM and the IC50 ([3]; Table 11) is reported as 1740 nM. The IC50 ([4]; Table 11) was 2350 nM.
`COc1cc(N2CCN(C)CC2)ccc1Nc1nc(NCc2ccccc2SC(C)C)c2[nH]ccc2n1` [IM-1] showed an IC50 ([1]; Table 11) of about 300 nM, an IC50 [2, 11] of 587 nM and an IC50 ([3]; Table 11) of 572 nM. For the same molecule, the IC50 ([4]; Table 11) was about 867 nM.
